Experimental data from patent publication US8846704B2, “Thiopyrimidine-based compounds and uses thereof” (YM Biosciences Austraila Pty Ltd, priority 2007, dated 2014).

Legend:
[1] = target: T1, Blk(m) (Mus musculus, UniProt P16277); assay: Upstate KinaseProfiler enzyme assay, Blk; type: biochemical; details: 500 nM compound; read-out: Percent inhibition at 500 nM Blk(m)
T1 construct: purchased Upstate Biotechnology (Dundee, UK), KinaseProfiler service
Method in brief: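 Contract enzyme profiling under a general kinase protocol. Each kinase was pre-diluted to a 10× working concentration in 20 mM MOPS pH 7.0 with 1 mM EDTA, 0.1% β-mercaptoethanol, 0.01% Brij-35, 5% glycerol and 1 mg/ml BSA before addition. Substrates were prepared as working stocks in de-ionised water.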

[2] = target: T2, human JAK2 (Homo sapiens, UniProt O60674); assay: Alphascreen tyrosine kinase enzyme assay, JAK2 kinase domain; type: biochemical; details: read-out: JAK2 IC50_nM
T2 construct: The kinase domain of human JAK2 was amplified; GST (N); made in house; host or cells: Sf9 insect cells (baculovirus)
Method in brief: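 JAK2 kinase domain expressed in baculovirus/Sf9 and glutathione-affinity purified. Compounds (final […]) pre-incubated 20 min with enzyme in 10 mM HEPES pH 7.5, MgCl2, NaCl, vanadate, 0.1% Tween 20.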

[3] = target: T3, BaF3 TELJAK2 cells (BafT_J2) (Homo sapiens, UniProt O60674); assay: Cellular screening, BaF3 TEL:JAK2 cells, Alamar Blue; type: cell-based; details: 40 hr, read-out: BafT_J2 IC50_nM
T3 construct: fused on or other part: TEL (ETV6) N-terminal part, coding nucleotides 1-487, serves as the oligomerising partner; It is fused through a Sal I site to the JAK2 kinase domain and expressed from pTRE2 in BaF3 cells bearing pTET-off; P41212 (Transcription factor ETV6)
Method in brief: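 Tet-off BaF3 cells carrying a TEL (nt 1-487)–JAK2 kinase-domain fusion, grown factor-independently in DMEM with 10% Tet-approved FBS without WEHI 3B medium. Compounds were diluted to 20 μM in screening plates, and cells (50,000–200,000 cell/mL at 1.1×) were incubated 40 hr at 37 °C, 5% CO2. Alamar Blue was then added for 4-6 hours; read at 544 nm.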

T1 sequence (P16277 whole entry): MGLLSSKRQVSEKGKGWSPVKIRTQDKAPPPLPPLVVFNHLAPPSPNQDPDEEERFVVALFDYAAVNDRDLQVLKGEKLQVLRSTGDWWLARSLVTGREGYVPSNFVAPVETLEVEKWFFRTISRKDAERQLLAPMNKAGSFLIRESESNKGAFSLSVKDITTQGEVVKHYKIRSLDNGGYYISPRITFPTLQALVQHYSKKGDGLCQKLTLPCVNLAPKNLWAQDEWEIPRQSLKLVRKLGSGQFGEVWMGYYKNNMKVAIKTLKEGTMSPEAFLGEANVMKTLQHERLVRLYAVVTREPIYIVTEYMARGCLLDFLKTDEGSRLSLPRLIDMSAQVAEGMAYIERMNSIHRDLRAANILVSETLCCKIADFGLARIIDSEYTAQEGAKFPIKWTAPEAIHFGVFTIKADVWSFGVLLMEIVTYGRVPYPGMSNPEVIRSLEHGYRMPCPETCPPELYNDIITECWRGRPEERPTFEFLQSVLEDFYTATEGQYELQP
T2 sequence (O60674 849-1124 limits assumed): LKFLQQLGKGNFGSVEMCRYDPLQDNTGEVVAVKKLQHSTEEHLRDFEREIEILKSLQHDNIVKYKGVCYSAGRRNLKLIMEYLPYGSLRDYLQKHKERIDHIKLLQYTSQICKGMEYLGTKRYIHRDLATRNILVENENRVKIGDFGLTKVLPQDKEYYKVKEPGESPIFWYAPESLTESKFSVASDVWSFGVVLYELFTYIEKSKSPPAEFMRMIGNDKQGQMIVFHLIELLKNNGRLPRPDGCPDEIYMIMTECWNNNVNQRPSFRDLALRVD
T3 sequence (O60674 whole entry, change not shown, the tested form may be a part): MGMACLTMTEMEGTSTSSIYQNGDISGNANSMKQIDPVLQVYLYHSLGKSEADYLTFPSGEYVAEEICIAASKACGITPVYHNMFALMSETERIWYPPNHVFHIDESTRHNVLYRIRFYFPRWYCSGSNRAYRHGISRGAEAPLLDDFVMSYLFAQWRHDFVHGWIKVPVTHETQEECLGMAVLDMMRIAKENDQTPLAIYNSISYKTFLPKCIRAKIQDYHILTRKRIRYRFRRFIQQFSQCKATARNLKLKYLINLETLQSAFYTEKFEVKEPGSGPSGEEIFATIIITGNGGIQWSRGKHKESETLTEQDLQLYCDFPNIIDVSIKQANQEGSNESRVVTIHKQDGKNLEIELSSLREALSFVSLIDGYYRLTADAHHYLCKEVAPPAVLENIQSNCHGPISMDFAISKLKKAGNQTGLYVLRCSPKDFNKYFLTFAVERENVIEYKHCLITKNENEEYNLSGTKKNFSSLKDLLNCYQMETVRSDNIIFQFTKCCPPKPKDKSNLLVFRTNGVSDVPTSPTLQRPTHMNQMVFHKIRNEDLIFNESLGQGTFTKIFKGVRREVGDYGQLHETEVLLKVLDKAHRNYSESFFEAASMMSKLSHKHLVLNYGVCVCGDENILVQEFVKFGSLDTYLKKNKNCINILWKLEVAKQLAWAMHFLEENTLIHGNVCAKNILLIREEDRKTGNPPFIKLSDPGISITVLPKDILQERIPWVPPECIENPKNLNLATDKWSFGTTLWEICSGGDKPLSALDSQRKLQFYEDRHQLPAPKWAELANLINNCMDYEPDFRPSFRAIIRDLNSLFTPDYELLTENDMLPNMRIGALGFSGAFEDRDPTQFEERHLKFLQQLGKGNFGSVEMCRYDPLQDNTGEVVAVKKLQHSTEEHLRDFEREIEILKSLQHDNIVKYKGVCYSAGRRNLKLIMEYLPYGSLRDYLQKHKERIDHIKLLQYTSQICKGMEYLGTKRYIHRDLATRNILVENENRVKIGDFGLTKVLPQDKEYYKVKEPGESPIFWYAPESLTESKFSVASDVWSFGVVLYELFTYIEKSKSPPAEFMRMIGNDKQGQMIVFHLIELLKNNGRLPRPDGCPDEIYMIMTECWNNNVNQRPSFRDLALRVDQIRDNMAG

Structure (SMILES) | inhibition at 0.5 µM [1] | IC50 [2] | GI50 [3]
C=CC(=O)Nc1ccc(Sc2ccnc(Nc3ccc(OC)cc3)n2)cc1 [Compound 74, N-(4-(2-(4-methoxyphenylao)pyrimidin-4-ylthio)phenyl)acrylamide] | 100% | > 1 µM | > 20 µM
C=CC(=O)Nc1ccc(Sc2ccnc(Nc3ccc(N4CCC(N5CCCC5)CC4)cc3)n2)cc1 [Compound 87, N-(4-(2-(4-(4-(pyrrolidin-1-yl)piperidin-1-yl)phenylao)pyrimidin-4-ylthio)phenyl)acrylamide] | 100% | > 1 µM | < 5 µM
C=CC(=O)Nc1ccc(Sc2ccnc(Nc3ccc(OC)c(O)c3)n2)cc1 [Compound 97] | 100% | > 1 µM | < 5 µM
C=CC(=O)Nc1ccc(Sc2ccnc(Nc3ccc(N4CCS(=O)(=O)CC4)cc3)n2)cc1 [Compound 99, N-{4-[(2-{[4-(1,1-dioxo-1λ^6,4-thiomorpholin-4-yl)phenyl]ao}pyrimidin-4-yl)sulfanyl]phenyl}prop-2-enamide] | 100% | > 1 µM | > 20 µM
CC#CC(=O)Nc1ccc(Sc2ccnc(Nc3ccc(N4CCOCC4)cc3)n2)cc1 [Compound 104, N-(4-(2-(4-morpholinophenylao)pyrimidin-4-ylthio)phenyl)but-2-ynamide] | 30% | > 1 µM | > 20 µM
C=CC(=O)Nc1ccc(Sc2ccnc(Nc3cccc(OC)c3)n2)cc1 [Compound 105, N-(4-(2-(3-methoxyphenylao)pyrimidin-4-ylthio)phenyl)acrylamide] | 100% | > 1 µM | < 20 µM
C=CC(=O)Nc1ccc(Sc2ccnc(Nc3cccc(C#N)c3)n2)cc1 [Compound 118, N-(4-(2-(3-cyanophenylao)pyrimidin-4-ylthio)phenyl)acrylamide] | 100% | > 1 µM | < 5 µM
C=CC(=O)Nc1cccc(Sc2ccnc(Nc3ccc(OC)cc3)n2)c1 [Compound 120, N-(3-(2-(4-methoxyphenylao)pyrimidin-4-ylthio)phenyl)acrylamide] | 100% | > 1 µM | < 20 µM
C=CC(=O)Nc1ccc(Sc2nc(Nc3ccc(N4CCOCC4)cc3)ncc2C)cc1 [Compound 124, N-(4-(5-methyl-2-(4-morpholinophenylao)pyrimidin-4-ylthio)phenyl)acrylamide] | 100% | > 1 µM | > 20 µM
CC#CC(=O)Nc1ccc(Sc2nc(Nc3ccc(N4CCOCC4)cc3)ncc2C)cc1 [Compound 125, N-(4-(5-methyl-2-(4-morpholinophenylao)pyrimidin-4-ylthio)phenyl)but-2-ynamide] | 100% | > 1 µM | < 20 µM
Cc1cnc(Nc2ccc(N3CCOCC3)cc2)nc1Sc1ccc(N)cc1 [Compound 126, 4-(4-aophenylthio)-5-methyl-N-(4-morpholinophenyl)pyrimidin-2-ae] | 43% | < 0.5 µM | < 5 µM
C=CC(=O)Nc1ccc(Sc2ccnc(Nc3ccc(C#N)cc3)n2)cc1 [Compound 131, N-(4-(2-(4-cyanophenylao)pyrimidin-4-ylthio)phenyl)acrylamide] | 100% | > 1 µM | < 20 µM
C=CC(=O)Nc1ccc(Sc2ccnc(Nc3cccc(Cl)c3)n2)cc1 [Compound 348, N-(4-(2-(3-chlorophenylao)pyrimidin-4-ylthio)phenyl)acrylamide] |  | > 1 µM | < 5 µM
C=CC(=O)Nc1ccc(Sc2ccnc(Nc3cccc(N4CCCC4)c3)n2)cc1 [Compound 355, N-(4-(2-(3-(pyrrolidin-1-yl)phenylao)pyrimidin-4-ylthio)phenyl)acrylamide] |  | > 1 µM | < 20 µM
C=CC(=O)Nc1ccc(Sc2ccnc(Nc3cccc([N+](=O)[O-])c3)n2)cc1 [Compound 361, N-(4-(2-(3-nitrophenylao)pyrimidin-4-ylthio)phenyl)acrylamide] |  | > 1 µM | < 5 µM
C=CC(=O)Nc1ccc(Sc2ccnc(Nc3cccc(S(=O)(=O)N4CCN(C)CC4)c3)n2)cc1 [Compound 365, N-(4-(2-(3-(4-methylpiperazin-1-ylsulfonyl)phenylao)pyrimidin-4-ylthio)phenyl)acrylamide] |  | > 1 µM | < 20 µM

Structure (SMILES) | inhibition at 0.5 µM [1] | IC50 [2] | GI50 [3]
C=CC(=O)Nc1ccc(Sc2ccnc(Nc3cccc(S(=O)(=O)NCc4ccccc4)c3)n2)cc1 [Compound 366, N-(4-(2-(3-(N-benzylsulfamoyl)phenylao)pyrimidin-4-ylthio)phenyl)acrylamide] |  | > 1 µM | < 20 µM
C=CC(=O)Nc1ccc(Sc2ccnc(Nc3ccc(S(=O)(=O)N4CCOCC4)cc3)n2)cc1 [Compound 367, N-(4-(2-(4-(morpholinosulfonyl)phenylao)pyrimidin-4-ylthio)phenyl)acrylamide] |  | > 1 µM | < 20 µM
C=CC(=O)Nc1ccc(Sc2ccnc(Nc3ccc(S(=O)(=O)NCc4ccccc4)cc3)n2)cc1 [Compound 368, N-(4-(2-(4-(N-benzylsulfamoyl)phenylao)pyrimidin-4-ylthio)phenyl)acrylamide] |  | > 1 µM | < 20 µM
C=CC(=O)Nc1ccc(Sc2ccnc(Nc3ccc(S(=O)(=O)N4CCN(C)CC4)cc3)n2)cc1 [Compound 370, N-(4-(2-(4-(4-methylpiperazin-1-ylsulfonyl)phenylao)pyrimidin-4-ylthio)phenyl)acrylamide] |  | > 1 µM | < 20 µM
C=CC(=O)Nc1ccc(Sc2ccnc(Nc3ccc(S(=O)(=O)NCCC(C)C)cc3)n2)cc1 [Compound 371, N-(4-(2-(4-(N-isopentylsulfamoyl)phenylao)pyrimidin-4-ylthio)phenyl)acrylamide] |  | > 1 µM | < 20 µM
C=CC(=O)Nc1ccc(Sc2ccnc(Nc3cccc(S(=O)(=O)N4CCOCC4)c3)n2)cc1 [Compound 372, N-(4-(2-(3-(morpholinosulfonyl)phenylao)pyrimidin-4-ylthio)phenyl)acrylamide] |  | > 1 µM | < 5 µM
C=CC(=O)Nc1ccc(Sc2ccnc(Nc3ccc(S(=O)(=O)N4CCOCC4)c(OC)c3)n2)cc1 [Compound 373, N-(4-(2-(3-methoxy-4-(morpholinosulfonyl)phenylao)pyrimidin-4-ylthio)phenyl)acrylamide] |  | > 1 µM | < 5 µM
O=C(Nc1ccc(Sc2ccnc(Nc3ccc(N4CCOCC4)cc3)n2)cc1)C1CC1(F)Cl (stereo not shown) [Compound 378, 2-chloro-2-fluoro-N-(4-(2-(4-morpholinophenylao)pyrimidin-4-ylthio)phenyl)cyclopropanecarboxamide] |  | > 1 µM | < 1 µM
Cc1cnc(Nc2ccc(N3CCOCC3)cc2)nc1Sc1ccc(NC(=O)/C(Br)=C\C(=O)O)cc1 [Compound 381, (E)-3-bromo-4-(4-(5-methyl-2-(4-morpholinophenylao)pyrimidin-4-ylthio)phenylao)-4-oxobut-2-enoic acid] |  | > 1 µM | > 20 µM
Cc1cnc(Nc2ccc(N3CCOCC3)cc2)nc1Sc1ccc(NC(=O)CCC(=O)O)cc1 [Compound 383, 4-(4-(5-methyl-2-(4-morpholinophenylao)pyrimidin-4-ylthio)phenylao)-4-oxobutanoic acid] |  | < 0.5 µM | < 20 µM
Cc1cnc(Nc2ccc(N3CCOCC3)cc2)nc1Sc1ccc(N2C(=O)CCC2=O)cc1 [Compound 384, 1-(4-(5-methyl-2-(4-morpholinophenylao)pyrimidin-4-ylthio)phenyl)pyrrolidine-2,5-dione] |  | < 0.5 µM | > 20 µM
CNC(=O)CCC(=O)Nc1ccc(Sc2nc(Nc3ccc(N4CCOCC4)cc3)ncc2C)cc1 [Compound 386, N1-methyl-N4-(4-(5-methyl-2-(4-morpholinophenylao)pyrimidin-4-ylthio)phenyl)succinamide] |  | > 1 µM | > 20 µM
Cc1cnc(Nc2ccc(N3CCOCC3)cc2)nc1Sc1ccc(NC(=O)/C=C/C(=O)O)cc1 [Compound 387, (E)-4-(4-(5-methyl-2-(4-morpholinophenylao)pyrimidin-4-ylthio)phenylao)-4-oxobut-2-enoic acid] |  | < 1 µM | > 20 µM
CCOC(=O)/C=C\C(=O)Nc1ccc(Sc2nc(Nc3ccc(N4CCOCC4)cc3)ncc2C)cc1 [Compound 388, (Z)-ethyl 4-(4-(5-methyl-2-(4-morpholinophenylao)pyrimidin-4-ylthio)phenylao)-4-oxobut-2-enoate] |  | < 0.5 µM | < 5 µM
Cc1cnc(Nc2ccc(N3CCOCC3)cc2)nc1Sc1ccc(N2C(=O)C=CC2=O)cc1 [Compound 390, 1-(4-(5-methyl-2-(4-morpholinophenylao)pyrimidin-4-ylthio)phenyl)-1H-pyrrole-2,5-dione] |  | < 0.5 µM | < 5 µM
C=CC(=O)Nc1ccc(Sc2ccnc(Nc3ccc4c(c3)OCO4)n2)cc1 [Compound 393, N-(4-(2-(benzo[d][1,3]dioxol-5-ylao)pyrimidin-4-ylthio)phenyl)acrylamide] |  | > 1 µM | < 20 µM
